Data from ChEMBL document CHEMBL1154059, “Synthesis and biological evaluation of novel 4,5-bis(dialkylaminoalkyl)-substituted acridines as potent telomeric G-quadruplex ligands” (Eur J Med Chem, 2009).

Experiments:
Nucleic Acid [1] = test: Binding affinity to human telomeric DNA G-quadruplex assessed as change in melting temperature at 20 uM by FRET assay; format: nucleic-acid assay
Nucleic Acid [2] = test: Binding affinity to human telomeric DNA G-quadruplex assessed as change in melting temperature at 10 uM by FRET assay; format: nucleic-acid assay
Nucleic Acid [3] = test: Binding affinity to human telomeric DNA G-quadruplex assessed as change in melting temperature at 5 uM by FRET assay; format: nucleic-acid assay
Nucleic Acid [4] = test: Binding affinity to human telomeric DNA G-quadruplex assessed as change in melting temperature at 1 uM by FRET assay; format: nucleic-acid assay
[5] = target: Telomerase reverse transcriptase (Homo sapiens, UniProt O14746); test: Inhibition of human telomerase in HT1080 cells by TRAP assay
Chain of Telomerase reverse transcriptase (O14746 whole entry): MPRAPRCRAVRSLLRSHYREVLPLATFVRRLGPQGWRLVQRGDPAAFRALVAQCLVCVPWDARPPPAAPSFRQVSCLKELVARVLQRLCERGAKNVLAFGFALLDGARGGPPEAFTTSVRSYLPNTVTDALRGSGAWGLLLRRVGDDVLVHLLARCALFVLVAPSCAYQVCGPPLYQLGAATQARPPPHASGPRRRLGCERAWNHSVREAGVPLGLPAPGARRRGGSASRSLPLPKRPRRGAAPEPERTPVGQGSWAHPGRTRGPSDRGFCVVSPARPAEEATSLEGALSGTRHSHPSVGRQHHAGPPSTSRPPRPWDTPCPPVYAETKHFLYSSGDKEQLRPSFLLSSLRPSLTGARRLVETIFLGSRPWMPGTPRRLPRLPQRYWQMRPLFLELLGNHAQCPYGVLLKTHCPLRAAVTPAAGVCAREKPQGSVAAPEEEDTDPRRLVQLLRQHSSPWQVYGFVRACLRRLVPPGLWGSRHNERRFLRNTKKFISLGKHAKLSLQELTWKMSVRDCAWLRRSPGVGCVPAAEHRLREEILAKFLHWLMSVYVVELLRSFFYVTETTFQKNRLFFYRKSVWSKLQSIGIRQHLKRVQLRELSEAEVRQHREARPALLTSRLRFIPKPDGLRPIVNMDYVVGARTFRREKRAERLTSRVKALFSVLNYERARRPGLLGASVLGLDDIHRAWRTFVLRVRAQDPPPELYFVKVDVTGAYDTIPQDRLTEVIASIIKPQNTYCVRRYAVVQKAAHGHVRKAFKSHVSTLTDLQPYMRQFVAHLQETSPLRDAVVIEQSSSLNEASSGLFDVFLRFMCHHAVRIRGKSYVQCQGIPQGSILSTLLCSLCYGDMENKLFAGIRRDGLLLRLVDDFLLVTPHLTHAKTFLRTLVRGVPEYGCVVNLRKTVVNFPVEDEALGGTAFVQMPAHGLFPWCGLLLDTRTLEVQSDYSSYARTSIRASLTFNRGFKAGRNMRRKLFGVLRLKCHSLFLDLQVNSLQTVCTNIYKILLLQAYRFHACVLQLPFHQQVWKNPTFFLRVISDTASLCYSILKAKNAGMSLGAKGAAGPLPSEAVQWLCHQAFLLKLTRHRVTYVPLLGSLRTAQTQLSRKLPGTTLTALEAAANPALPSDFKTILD

SMILES	ΔTm (Nucleic Acid [1]) [°C]	ΔTm (Nucleic Acid [2]) [°C]	ΔTm (Nucleic Acid [3]) [°C]	ΔTm (Nucleic Acid [4]) [°C]	IC50 [5] [µM]
C[N+](C)(C)CCC(=O)NCc1cccc2cc3cccc(CNC(=O)CC[N+](C)(C)C)c3nc12	11	8.2	5.7	2.1	3
NCc1cccc2cc3cccc(CN)c3nc12	7.3			0	> 30
CN(C)CCCNCc1cccc2cc3cccc(CNCCCN(C)C)c3nc12	17.7		6.7		0.15
CN1CCN(CCC(=O)NCc2cccc3cc4cccc(CNC(=O)CCN5CCN(C)CC5)c4nc23)CC1	4.6	2.6	0.5	0	> 30
O=C(CN1CCCCC1)NCc1cccc2cc3cccc(CNC(=O)CN4CCCCC4)c3nc12	14.6		0.6	0	
O=C(CCCN1CCCC1)NCc1cccc2cc3cccc(CNC(=O)CCCN4CCCC4)c3nc12	16.4	11.9	8.8	3	13
O=C(CN1CCCC1)NCc1cccc2cc3cccc(CNC(=O)CN4CCCC4)c3nc12	2.6		1.4		> 30
O=C(CCN1CCCC1)NCc1cccc2cc3cccc(CNC(=O)CCN4CCCC4)c3nc12	7.6	4.3	2.8	0	6
C[N+]1(CCC(=O)NCc2cccc3cc4cccc(CNC(=O)CC[N+]5(C)CCCC5)c4nc23)CCCC1	12.6	8.7	6.8	2.3	4
C[N+](C)(C)CC(=O)NCc1cccc2cc3cccc(CNC(=O)C[N+](C)(C)C)c3nc12	16.7		5.9		7.3
CN(C)CC(=O)NCc1cccc2cc3cccc(CNC(=O)CN(C)C)c3nc12	3.6				> 30
CCN(CC)CCC(=O)NCc1cccc2cc3cccc(CNC(=O)CCN(CC)CC)c3nc12	10.7	9.1	7.2	2.6	
c1ccc(CNCc2cccc3cc4cccc(CNCc5ccccc5)c4nc23)cc1	4.8				
C[N+]1(CC(=O)NCc2cccc3cc4cccc(CNC(=O)C[N+]5(C)CCCCC5)c4nc23)CCCCC1	12.6	8.8	6.8	2.6	30
O=C(CCCN1CCCCC1)NCc1cccc2cc3cccc(CNC(=O)CCCN4CCCCC4)c3nc12	10.2	8.1	3.7	1.3	12
CN(C)c1ccc(Nc2c3ccc(NC(=O)CCN4CCCC4)cc3nc3cc(NC(=O)CCN4CCCC4)ccc23)cc1		41.1	34.7	29.1	0.09
c1cnc(NCc2cccc3cc4cccc(CNc5ncccn5)c4nc23)nc1	0				
C[N+]1(CC(=O)NCc2cccc3cc4cccc(CNC(=O)C[N+]5(C)CCCC5)c4nc23)CCCC1	9.8	7.4	4.3	0.3	27
CN(C)CCNCc1cccc2cc3cccc(CNCCN(C)C)c3nc12	10.2		4		5.6
CCN(CC)CC(=O)NCc1cccc2cc3cccc(CNC(=O)CN(CC)CC)c3nc12	2.4				
O=C(CCN1CCCCC1)NCc1cccc2cc3cccc(CNC(=O)CCN4CCCCC4)c3nc12	10.4	7.3	6.6	2.2	> 30
CN(C)CCC(=O)NCc1cccc2cc3cccc(CNC(=O)CCN(C)C)c3nc12	8.1		5		> 30
